Assay results from patent US8604060B2, “Use of antagonists of the CBI receptor for the manufacture of a composition useful for the treatment of hepatic diseases” (INSERM, priority 2004, dated 2013).

What was measured:
[1] = system: CB1-/- cells (mouse hepatic myofibroblasts); assay: DNA synthesis ([3H] thymidine incorporation) in hepatic myofibroblasts from CB1-/- mice stimulated with PDGF-BB; assay type: cell-based; details: 20 ng/ml PDGF-BB, 30 h
Experimental: (§1) FIG. 3: Plots showing the effect of increasing amounts of CB1 antagonist SR141716 on DNA synthesis in human hepatic myofibroblast (panel A) and on wild type mice (shown as WT) and CB1 deficient mice (shown as CB1KO) (panel B). The DNA synthesis is expressed as a percentage of DNA synthesis in cells treated with the vehicle of SR 141716 and plotted against increasing concentrations of SR 141716 in nM. Human hepatic myofibroblast cells were stimulated for 30 h with varying concentrations of the CB1 receptor antagonist SR 141716, in the presence of 20 ng/ml of PDGF-BB [^3H] […] Error bars are shown on the plot. […] Thymidine incorporation into DNA was measured as mean±SEM, from 3-6 experiments obtained from cells isolated from livers of 3 WT and 3 CB1 -/- mice and are expressed as percent of control. […]
(§2) DNA synthesis was measured in triplicate wells by incorporation of [3H] thymidine, as previously described (Tao, J., et al., J Biol Chem, 1999. 274(34): p. 23761-23769). […]
(§3) The cell culture was performed as described in example 1 herein. Cell culture of both human and mouse hepatic myofibroblasts were exposed to increasing doses of CB1 receptor antagonist SR141716 and the DNA synthesis of hepatic myofibroblasts was measured.

[2] = system: human hepatic myofibroblasts; assay: DNA synthesis ([3H] thymidine incorporation) in human hepatic myofibroblasts stimulated with PDGF-BB; assay type: cell-based; details: 20 ng/ml PDGF-BB, 30 h, read-out: half maximal inhibition of DNA synthesis elicited by PDGF-BB
Experimental: as §1, §2, §3

[3] = system: murine myofibroblasts isolated from wild type mice; assay: DNA synthesis ([3H] thymidine incorporation) in murine hepatic myofibroblasts from wild type mice stimulated with PDGF-BB; assay type: cell-based, mouse; details: 20 ng/ml PDGF-BB, 30 h
Experimental: as §1, §2, §3

CD1 mice = assay: Mortality induced by chronic carbon tetrachloride intoxication (experimental model of liver fibrosis) in mice; assay type: in vivo; details: 10 mg/kg daily intraperitoneal
Source text: FIG. 4: Plot showing the effect of SR141716 or its vehicle on the mortality induced by carbon tetrachloride in mice. The survival rate of mice treated with CC14 either with SR141716 (dotted lines) or with no treatment (solid lines showing the administration of vehicle only without CB1 antagonist) is shown against time in days. Time of administration of CC14 is shown by the arrow.
The antifibrogenic potential of the CB1 antagonist SR 141716 in an experimental model of liver fibrosis, induced by chronic intoxication with carbon tetrachloride was evaluated.
SR 141716 (10 mg/kg body weight) was dissolved freshly before use, in a vehicle solution (2 drops of Tween 80 in 10 ml of PBS containing 10% dimethylsulfoxide and 5% ethanol) and sonicated.
CD1 mice were obtained from Janvier (France). All experiments were performed using accepted ethical guidelines. 36 males, aged 10-12 weeks, were used and animals were divided into the following groups: vehicle-treated, olive oil group (n=3); vehicle-treated, CC14 group (n=14); SR 141716-treated olive oil group (n=3); SR 141716A-treated, CC14 group (n=16). Animals were housed in temperature and humidity controlled rooms, kept on a 12-h light/dark cycle and provided unrestricted amounts of food and water, unless otherwise specified. […]

SMILES: Cc1c(C(=O)NN2CCCCC2)nn(-c2ccc(Cl)cc2Cl)c1-c1ccc(Cl)cc1 [SR141716, N-piperidino-5-(4-chlorophenyl)-1-(2,4-dichlorophenyl)-4-methylpyrazole-3-carboxamide]
- proliferation (DNA synthesis elicited by PDGF-BB) [1]: only marginally affected
- IC50 [2]: 300 to 400 nM
- DNA synthesis elicited by PDGF-BB [3]: inhibited
- survival rate at one month (CD1 mice; CC14 0.5 ml/kg IP twice a week for one month, started 7 days before CC14): 83%
- deaths in sham animals (CD1 mice; olive oil (sham) mice): no deaths
